Data as given in patent US6664309B2, “Antimicrobial hot melt adhesive” (priority 2000, dated 2003).

Assays:
Gram Positive Bacteria = experiment: Bacterial growth testing on inoculated agar plates, nonwoven with adhesive; assay type: cell-based, gram-positive cocci similar to a Staphylococcus type; conditions: nonwoven with 3 gsm adhesive on inoculated agar plate, 35±2° C., 24 hours, observed for areas of non-growth
Method: A control mix, a mix with 0.5% triclosan, and a mix with 0.75% triclosan, were made of each product at 300° F. Each of the adhesives were applied at 300° F. to a standard 15.3 grams/m^2 (gsm) nonwoven substrate on the CT225 coater using a Nordson Control Weave applicator at 0.5 inch wide. The adhesive add-on level was 3 gsm. The pattern was fiberized. The nonwoven/adhesive was combined to release paper for easy removal for testing.
Ready-made petri plates of agar were used for this experiment. Inoculates were prepared using a barium sulfate standard for a turbidity of 150,000,000 bacteria/ml. The plates were inoculated using a sterile swab by streaking bacteria in three directions (to ensure complete coverage). A midline was drawn on each plate with a marker. To one side a piece of nonwoven (0.5×1.0″) was set on the inoculated plate. A sample of nonwoven with adhesive was positioned on the other half. The plates were incubated at 35±2° C. for 24 hours and observed for areas of non-growth. Photographs were taken using a digital camera. The following table outlines the samples tested and the results for each bacteria type.
Because triclosan is a broad-spectrum bacteriostat, it was thought that it would work on both the gram positive and the gram-negative strains. […]

[1] = cited from earlier work

Oc1cc(Cl)ccc1Oc1ccc(Cl)cc1Cl [triclosan, 2,4,4′-trichloro-2′-hydroxy-diphenyl-ether]
Bacterial growth, Gram Positive Bacteria (Gram Positive Bacteria): effective at inhibiting the growth
Solubility in water [1]: practically insoluble in water
